Reference: publication PMC12005989, “Purification, identification, and in silico screening of a multifunctional octapeptide from semen armeniacae glutelin-2 hydrolysates: restraining mechanisms to Keap1 and ACE, stability, and ferrous-transport efficiency” (Frontiers in Nutrition, 2025)
Read-outs that look alike come from different tables or passages of the source. One block for each compound: values may come before it. Ends that are not written are not given here.

How the values were obtained:
[1] = cited from earlier work
Text: The Asp., Val, Tyr, Phe, and Gly in […] can effectively bind to ferrous ions ([16], [20]). The γ-carboxyl group in Asp and phenolic hydroxyl groups in Tyr and Phe can form ionic bond with ferrous ions ([17]). Ascribed to the excellent metal ion-chelating capacity, Gly is an ideal ingredient for iron or calcium supplement ([45]). In addition, the carbo ...

[2] = test system: ACE; set-up: method as in 2 sources, ref 34 = [34]; doi:10.1016/j.fbio.2023.103419; 34. Zheng Y Ma J Guo Y Zhuang Y Yang Z Zhu Z . In silico screening and characterization, inhibition mechanism on ACE, and stability of antihypertensive peptides with Zn-chelating capacity identified f ||| ref 45 = [45]; PMID 38470110; doi:10.1021/acs.jafc.4c00829; 45. Martineau-Côté D Achouri A Karboune S L’Hocine L . Antioxidant and angiotensin-converting enzyme inhibitory activity of Faba bean-derived peptides after in vitro gastrointestinal digestion: insigh; settings: read-out: ACE-inhibitory IC50, cited from earlier work
[3] = Ferrous solubility of ferrous chelate during simulated gastrointestinal digestion; format: in vitro ADME; settings: soluble ferrous by o-phenanthroline every 30 min
Protocol: Next, the intestinal digestive fluid was added, and the digestion was continued at pH 6.8 for 2 h in the EDZF-C002 thermostatic vibrator ([…], 175 rpm).

[4] = Gastrointestinal stability of peptide (simulated gastric and intestinal digestion); format: in vitro ADME; settings: simulated gastric fluid (pepsin 0.40 mg/mL) 90 min, then intestinal fluid (pancreatin, bile salt) 2 h, 37°C; read-out retained activity; p > 0.05
Protocol: (§1) As described by Wu et al. ([41]), the simulative gastric digestive fluid consisted of sodium chloride (0.18 mol/L), ultrapure water (180 mL), and 0.40 mg/mL of pepsin. The simulation intestinal digestive juice was composed of NaHCO3 (0.625 g/mL), bile salt (3 g/100 mL), pancreatin (0.35 mg/mL), and 180 mL ultrapure water. In a glass triangle flask, 300 mg of the antihypertensive and antioxidant BAG-2H peptides, 60 mL of ultrapure water, and 150 mL of the simulative gastric fluid were mixed thoroughly. The flask was placed at 37°C in an EDZF-C002 thermostatic vibrator with shaking rate of 140 rpm. After 90 min, 180 mL of the simulative intestinal hydrolysis fluid was added and stirred at 37°C for 2 h. To stop the hydrolysis, the digestion solution in the flask was boiled for 6 min and then cooled by running water to room temperature. The ACE inhibition capacity and antioxidant ability of the treated BAG-2H peptides were detected and compared to those of the undigested BAG-2H peptides.

[5] = ABTS+ radical quenching, potassium persulfate method; settings: 100 μg/mL; mean ± SD, triplicate
Protocol: (§2) The free radical quenching ability of samples, including superoxide, 2,2′-hydrazine-bis (3-ethylbenzothiazolin-6-sulfonic acid) diamine salt cation (ABTS^+), and hydroxyl radicals, was determined using the pyrogallol auto-oxidation, potassium persulfate, and β-deoxyribose oxidation methods, according to the same procedures from Tyagi et al. ([6]), Lin et al. ([2]), and Wang et al. ([35]), respectively. Comparison was conducted when the samples were replaced by glutathione (0.1 mg/mL).
as §1, with “To stop the hydrolysis, the digestion solution in the flask was boiled for 6 min and then cooled by running water to room temperature.” left out

[6] = test system: Caco-2 cell monolayers; experiment: Ferrous transport across Caco-2 cell monolayers; format: in vitro ADME; settings: Caco-2 transwell, apical to basolateral, chelate 320 μg/mL, 37°C, o-phenanthroline, p < 0.05
Protocol: In a 24-well transwell culture plate, Caco-2 cells (0.75 × 10^6 cells/cm^2) were cultivated by Dulbecco’s modified Eagle’s medium that contained fetal bovine serum (20 g/L), streptomycin (1 μg/μL), penicillin (1 μg/μL), and neomycin (1 μg/μL) and refreshed every 48 h. After 12–14 d of incubation at 5% CO2 and 37°C, the transepithelial electrical resistance was more than 400 Ω·cm^2 and a monolayer Caco-2 cell mode was formed. Afterward, the medium was removed, and Hank’s Balanced Salt Solution was added. After 30 min of cultivation at 5% CO2 and 37°C, Hank’s Balanced Salt Solution was removed from the apical side and BAG-2H peptide-ferrous chelates (320 μg/mL) were added and then cultivated at 5% CO2 and 37°C for 150 min. Every 30 min, the o-phenanthroline method was used to quantify the ferrous amounts of cultivate solution in the basolateral side ([38]).

[7] = molecular target: T1, angiotensin-I-converting enzyme (ACE) (Oryctolagus cuniculus, UniProt P12822); experiment: ACE restraining capacity, hippuric acid method; format: biochemical, Rabbit; settings: substrate HHL, absorbance 228 nm, IC50 from regression of inhibition against concentration, tests in triplicate, read-out: ACE-inhibitory activity (IC50)
T1 construct: Rabbit lungs ACE (0.1 U) was obtained from Sigma-Aldrich (St. Louis, MO, USA); purchased Sigma-Aldrich (St. Louis, MO, USA); host or cells: rabbit lung (tissue-derived)
T1 sequence (P12822 34-1310): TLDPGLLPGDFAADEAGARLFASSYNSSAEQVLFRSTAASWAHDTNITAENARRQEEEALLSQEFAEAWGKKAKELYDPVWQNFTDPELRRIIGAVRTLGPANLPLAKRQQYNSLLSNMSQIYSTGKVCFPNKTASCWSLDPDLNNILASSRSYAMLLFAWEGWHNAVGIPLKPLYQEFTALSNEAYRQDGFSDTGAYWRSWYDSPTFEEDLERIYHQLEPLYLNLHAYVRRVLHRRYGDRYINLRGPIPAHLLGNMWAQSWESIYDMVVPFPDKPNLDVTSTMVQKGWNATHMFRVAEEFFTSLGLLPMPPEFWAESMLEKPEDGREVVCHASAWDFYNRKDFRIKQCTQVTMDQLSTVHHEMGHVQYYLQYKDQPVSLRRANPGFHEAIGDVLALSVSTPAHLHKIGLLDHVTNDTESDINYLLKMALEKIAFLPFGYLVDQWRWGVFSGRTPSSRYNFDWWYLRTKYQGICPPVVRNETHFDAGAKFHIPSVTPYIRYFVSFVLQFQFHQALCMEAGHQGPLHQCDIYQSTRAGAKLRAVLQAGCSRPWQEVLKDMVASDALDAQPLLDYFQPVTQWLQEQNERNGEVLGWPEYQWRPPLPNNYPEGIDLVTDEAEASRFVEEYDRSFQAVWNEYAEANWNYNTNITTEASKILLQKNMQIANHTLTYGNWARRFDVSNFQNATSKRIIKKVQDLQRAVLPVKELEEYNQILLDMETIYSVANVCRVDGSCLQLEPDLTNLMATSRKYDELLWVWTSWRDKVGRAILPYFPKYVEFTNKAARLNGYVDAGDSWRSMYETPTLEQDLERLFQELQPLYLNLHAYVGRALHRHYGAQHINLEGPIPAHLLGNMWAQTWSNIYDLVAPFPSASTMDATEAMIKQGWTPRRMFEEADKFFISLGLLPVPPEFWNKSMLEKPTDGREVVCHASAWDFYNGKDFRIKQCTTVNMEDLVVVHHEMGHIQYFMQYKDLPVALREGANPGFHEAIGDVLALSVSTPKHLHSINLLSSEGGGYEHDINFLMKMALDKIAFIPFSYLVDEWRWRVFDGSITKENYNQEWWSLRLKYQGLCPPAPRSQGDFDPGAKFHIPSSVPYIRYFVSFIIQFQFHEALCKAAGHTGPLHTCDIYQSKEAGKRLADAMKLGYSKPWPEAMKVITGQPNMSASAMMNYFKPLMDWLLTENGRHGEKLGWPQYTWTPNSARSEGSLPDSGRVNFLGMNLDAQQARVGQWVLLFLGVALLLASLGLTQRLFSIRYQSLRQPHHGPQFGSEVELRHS

[8] = Superoxide radical quenching, pyrogallol auto-oxidation method; settings: 100 μg/mL, mean ± SD, triplicate
Protocol: as §2, §1

[9] = Hydroxyl radical quenching, β-deoxyribose oxidation method; settings: 100 μg/mL, mean ± SD, triplicate
Protocol: Next, the purification of BAG-2H is a two-step process: first, BAG-2H solution (1 g/L) was subjected to ultra-filtration on an ultra-membrane (filter aperture of 220 nm, Jingfei Membrane Equipment Factory, Luzhou, China). Next, the ultra-filtrate solution (2 mL) was chromatographically purified citing the modified procedures from Li et al. ([30]). Pre-balanced G-15 gel was loaded into a HS-MG-125 chromatographic column (Huasheng Chromatography Tech. Co., Ltd., Wuxi, China). After the BAG-2H ultra-filtrate solution has completely sunk into the column plane, the gel chromatographic column was sealed and eluted using dH2O with a constant velocity of 2.4 mL/min and monitor wavelength of 220 nm. An automatic collector (BT-160I, Thirdli Collection Equipment Co., Ltd., Guangzhou, China) was used to collect the elution, and the collection tube was changed every 5 min ([34]). After 400 min, the profiles of absorbance at 220 nm against elution time were drawn, and the separation fractions were freeze-dried using the EHI-220D lyophilizer. The ACE-inhibitory, ferrous-binding, and hydroxyl radical quenching abilities of the separation fractions were detected citing the hippuric acid ([50]), […]. During screening of the separation fractions, ACE-inhibitory and hydroxyl radical quenching abilities were the primary indexes, and the amino acid sequences of the selected fraction were analyzed.
as §2, with “Comparison was conducted when the samples were replaced by glutathione (0.1 mg/mL).” left out
Physicochemical properties and functionalities of BAG-2H peptides, including antihypertension and antioxidant activity, were in silico analyzed with the AHTpin^2 and Peptide Ranker server^3 databases ([39]), respectively. […]

[10] = Ferric reducing ability, Prussian blue method; settings: 100 μg/mL, pH 6.8 phosphate buffer, determined at 700 nm, mean ± SD, triplicate
Protocol: Ferric reducing ability was defined as the ability of antioxidants to provide protons, which was administrated according to the Prussian blue method ([2]). A total 1 mL of BAG-2H peptide solution (100 μg/mL, dissolved in 0.2 mol/L of phosphate buffer, pH 6.8) was reacted with potassium ferricyanide (10 mg/mL, 4 mL) in the EDZF-C002 thermostatic vibrator (50°C, 220 rpm) for 30 min. The reaction solution was cooled to 25 ± 1°C and precipitated using an equal volume of 100 mg/mL trichloroacetic acid for 10 min. Then, the reaction solution was centrifuged at 3000 × g for 25 min, and 1 mL of the upper solution was pipetted and reacted with 1 mg/mL of FeCl3 (1.2 mL) to produce Prussian blue (potassium ferrocyanide). The concentration of potassium ferrocyanide produced was positively correlated with the ferric reducing ability of the sample ([37]), which was determined at 700 nm using a HD-UV90 ultraviolet–visible spectrophotometer (Holder Technology Co. LTD, Weifang, China).
As described by Wu et al. ([41]), the simulative gastric digestive fluid consisted of sodium chloride (0.18 mol/L), ultrapure water (180 mL), and 0.40 mg/mL of pepsin. […] The ACE inhibition capacity and antioxidant ability of the treated BAG-2H peptides were detected and compared to those of the undigested BAG-2H peptides.

[11] = molecular target: T1, angiotensin-I-converting enzyme (ACE); experiment: ACE-inhibitory kinetics, Lineweaver–Burk plot; format: biochemical, Rabbit; settings: inhibitor 0.011–0.055 mmol/L, HHL 0.13–1.32 mmol/L, Vmax not altered, Km increased
Text: The hippuric acid method ([50]) was used to measure the samples’ restraining capacity against ACE citing the same procedures from Zheng et al. ([34]). The absorbance of the reaction solution at 228 nm was the hippuric acid content and was proportional to ACE activity; therefore, the restraining capacity of samples toward ACE was defined as the percentage reduction in the absorption at 228 nm between the control and sample groups. In addition, the ACE-inhibitory kinetic by BAG-2H peptides (0.011–0.055 mmol/L) was investigated employing Lineweaver–Burk plot ([36]).

Compound: FEDPEFE [scallop skirts peptide]
Ferrous chelating ability ([1]; scallop skirts peptide): 9.39 mg/g

Compound: SELE [millet bran globulin peptide]
Ferrous chelating ability ([1]; millet bran globulin peptide): 7.93 mg/g

Compound: GCHHY
IC50 ([2]; peptide from millet bran glutelin-2): 147 µM

Ferrous solubility during gastric digestion (0–90 min) ([3]; simulated gastric fluid with pepsin, pH 1.9, 37°C, 175 rpm): relatively stable
Ferrous solubility during intestinal digestion (91–180 min) ([3]; simulated intestinal fluid, pH 6.8, 37°C): apparently decreased
Compound: [Cl][Fe][Cl] [ferrous chloride]

Stability of antioxidant activity and ACE-inhibitory capacity during gastrointestinal digestion [4]: stable during gastrointestinal digestion
Compound: PVDFAGFY

IC50 [7]: 101 µM
ACE-inhibitory mode [11]: competitive ACE inhibitor
Compound: PVDFAGFY-ferrous chelate: ferrous chelate of PVDFAGFY prepared with ferrous chloride (also: ferrous chelate)
ABTS+ scavenging activity, before gastrointestinal [5]: 35.18% ± 1.16%c
Ferrous transmembrane absorption across Caco-2 monolayer compared with ferrous chloride ([6]; FeCl2 0.3 mg/mL, HBSS, 150 min): higher than that of ferrous chloride
Ferrous transport across Caco-2 monolayer compared with ferrous lactate, 120–150 min ([6]; ferrous lactate 0.3 mg/mL): better at transporting iron across the monolayer of Caco-2 cells than ferrous lactate
Superoxide radical scavenging ability, before gastrointestinal [8]: 69.55%
Superoxide radical scavenging ability, before gastrointestinal ([8]; listed as PVDFAGFY-Fe): 69.55% ± 3.41%b
·OH scavenging activity, before gastrointestinal [9]: 79.37%
·OH scavenging activity, before gastrointestinal ([9]; listed as PVDFAGFY-Fe): 79.37% ± 4.21%b
Ferric reducing ability, before gastrointestinal ([10]; the values are: absorbance at 700 nm): 0.225 ± 0.012

Compound: N[C@@H](CCC(=O)N[C@@H](CS)C(=O)NCC(=O)O)C(=O)O [Glutathione, glutathione, reference compound]
ABTS+ scavenging activity, before gastrointestinal [5]: 79.25 ± 1.67%a
Superoxide radical scavenging ability, before gastrointestinal [8]: 90.52% ± 4.97%a
·OH scavenging activity, before gastrointestinal [9]: 95.56% ± 1.38%a
Ferric reducing ability, before gastrointestinal [10]: 0.675 ± 0.019a

Compound: VIPTEPPHA
IC50 ([2]; peptide from Faba beans): 260 µM
